In ChEMBL document CHEMBL1135159, “Pyrazolo[3,4-d]pyrimidines containing an extended 3-substituent as potent inhibitors of Lck -- a selectivity insight” (Bioorg Med Chem Lett, 2002):

Columns and labels:
[1] = target: T1, Vascular endothelial growth factor receptor 2 (Homo sapiens, UniProt P35968); test: Inhibition of human VEGF-receptor 2 (kdr) kinase.
Mus musculus [2] = test: Tested in vivo for inhibition ofTCR stimulated (alpha-CD3 mAb) IL-2 production in mice after oral dosing for 18 hr; type: functional; set-up: concentration or dose not given beside the values
Mus musculus [3] = test: Tested in vivo for inhibition ofTCR stimulated (alpha-CD3 mAb) IL-2 production in mice after oral dosing for 8 hr; type: functional; set-up: concentration or dose not given beside the values
Mus musculus [4] = test: Tested in vivo for inhibition ofTCR stimulated (alpha-CD3 mAb) IL-2 production in mice after oral dosing; type: functional
Homo sapiens = species: Homo sapiens; test: Inhibition of alpha-CD3 mAb induced IL-2 production in human whole blood; type: functional, organism-based
Rattus norvegicus [5] = test: In vivo clearance after 5 mg/kg dose; type: ADME, organism-based; set-up: dose 5 mg/kg
[6] = Compound was evaluated for pharmacokinetic parameter volume of distribution; type: ADME, organism-based; settings: rat, in vivo
[7] = Compound was evaluated for pharmacokinetic parameter percent bioavailability at 18 h; type: ADME, organism-based; settings: rat, in vivo
[8] = Compound was evaluated for pharmacokinetic parameter maximum time period; type: ADME, organism-based; settings: rat, in vivo
Rattus norvegicus [9] = species: Rattus norvegicus; test: Compound was evaluated for pharmacokinetic parameter maximum plasma concentration; type: ADME, organism-based; settings: in vivo
[10] = target: T1, Vascular endothelial growth factor receptor 2; test: Inhibition of Vascular endothelial growth factor receptor 2
[11] = target: Tyrosine-protein kinase Lck (Homo sapiens, UniProt P06239); test: Inhibition of human p56 Lck tyrosine kinase
Sequence of Tyrosine-protein kinase Lck (P06239 whole entry): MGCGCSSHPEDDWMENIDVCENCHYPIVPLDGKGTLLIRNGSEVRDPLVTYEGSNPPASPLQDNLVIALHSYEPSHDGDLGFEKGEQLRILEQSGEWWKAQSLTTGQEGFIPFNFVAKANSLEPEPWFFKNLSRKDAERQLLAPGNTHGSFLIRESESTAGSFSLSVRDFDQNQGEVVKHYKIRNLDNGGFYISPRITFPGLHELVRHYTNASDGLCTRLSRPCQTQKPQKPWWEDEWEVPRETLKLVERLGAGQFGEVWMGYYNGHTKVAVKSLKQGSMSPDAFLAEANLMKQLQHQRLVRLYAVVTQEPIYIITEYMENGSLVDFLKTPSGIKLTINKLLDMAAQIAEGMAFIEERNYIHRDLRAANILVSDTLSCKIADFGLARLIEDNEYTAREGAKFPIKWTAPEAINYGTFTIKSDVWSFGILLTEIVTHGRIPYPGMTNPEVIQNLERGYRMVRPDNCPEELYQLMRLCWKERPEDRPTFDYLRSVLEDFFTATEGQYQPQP

[12] = Compound was evaluated for pharmacokinetic parameter percent bioavailability at 8 h; type: ADME, organism-based; settings: rat, in vivo
[13] = target: Proto-oncogene tyrosine-protein kinase Src (Homo sapiens, UniProt P12931); test: Inhibition of Src protein tyrosine kinase
Sequence of Proto-oncogene tyrosine-protein kinase Src (P12931 2-536 limits assumed): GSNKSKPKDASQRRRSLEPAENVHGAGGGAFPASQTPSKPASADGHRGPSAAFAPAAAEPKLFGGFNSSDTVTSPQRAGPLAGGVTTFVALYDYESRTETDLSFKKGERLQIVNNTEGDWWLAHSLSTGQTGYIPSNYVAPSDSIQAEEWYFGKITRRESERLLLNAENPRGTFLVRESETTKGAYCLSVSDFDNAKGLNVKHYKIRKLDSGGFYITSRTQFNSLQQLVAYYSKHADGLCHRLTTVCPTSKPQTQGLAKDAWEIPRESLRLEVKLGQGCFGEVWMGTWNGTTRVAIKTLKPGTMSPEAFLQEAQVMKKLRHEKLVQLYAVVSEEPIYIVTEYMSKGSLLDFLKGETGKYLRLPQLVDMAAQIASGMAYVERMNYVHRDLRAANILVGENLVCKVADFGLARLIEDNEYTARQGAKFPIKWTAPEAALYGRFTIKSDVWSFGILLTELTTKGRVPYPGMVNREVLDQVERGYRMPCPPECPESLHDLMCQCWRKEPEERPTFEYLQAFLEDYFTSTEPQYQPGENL

Angiopoietin-1 receptor = Angiopoietin-1 receptor (Homo sapiens, UniProt Q02763); test: Inhibition of TIE-2 kinase
Sequence of Angiopoietin-1 receptor (Q02763 whole entry): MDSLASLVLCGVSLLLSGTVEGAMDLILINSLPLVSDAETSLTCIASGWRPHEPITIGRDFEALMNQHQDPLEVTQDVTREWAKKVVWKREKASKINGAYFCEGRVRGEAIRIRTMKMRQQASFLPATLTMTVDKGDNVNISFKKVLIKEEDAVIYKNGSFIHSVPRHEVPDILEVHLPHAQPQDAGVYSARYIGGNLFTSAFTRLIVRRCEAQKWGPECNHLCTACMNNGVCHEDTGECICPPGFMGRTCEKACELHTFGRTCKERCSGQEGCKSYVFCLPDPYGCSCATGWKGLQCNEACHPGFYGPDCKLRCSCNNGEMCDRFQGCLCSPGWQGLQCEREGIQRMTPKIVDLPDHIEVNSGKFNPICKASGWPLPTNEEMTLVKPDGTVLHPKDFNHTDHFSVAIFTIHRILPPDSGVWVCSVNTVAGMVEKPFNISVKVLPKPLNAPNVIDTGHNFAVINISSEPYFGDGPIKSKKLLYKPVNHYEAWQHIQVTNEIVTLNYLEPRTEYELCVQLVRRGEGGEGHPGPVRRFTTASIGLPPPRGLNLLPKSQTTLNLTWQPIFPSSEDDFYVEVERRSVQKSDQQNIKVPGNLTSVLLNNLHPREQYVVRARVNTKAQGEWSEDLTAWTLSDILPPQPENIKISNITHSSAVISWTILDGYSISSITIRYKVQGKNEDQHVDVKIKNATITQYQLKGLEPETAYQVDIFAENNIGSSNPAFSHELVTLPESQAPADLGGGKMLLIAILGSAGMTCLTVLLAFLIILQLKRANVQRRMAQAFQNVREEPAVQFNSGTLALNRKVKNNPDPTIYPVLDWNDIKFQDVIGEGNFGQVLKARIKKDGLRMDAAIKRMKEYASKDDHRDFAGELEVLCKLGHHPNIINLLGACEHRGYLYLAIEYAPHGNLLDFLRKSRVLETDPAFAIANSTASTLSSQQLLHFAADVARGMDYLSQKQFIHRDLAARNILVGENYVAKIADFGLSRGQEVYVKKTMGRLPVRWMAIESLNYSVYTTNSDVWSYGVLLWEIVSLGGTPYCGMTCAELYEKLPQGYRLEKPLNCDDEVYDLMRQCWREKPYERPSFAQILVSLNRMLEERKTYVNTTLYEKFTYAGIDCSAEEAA

T1 sequence (P35968 whole entry): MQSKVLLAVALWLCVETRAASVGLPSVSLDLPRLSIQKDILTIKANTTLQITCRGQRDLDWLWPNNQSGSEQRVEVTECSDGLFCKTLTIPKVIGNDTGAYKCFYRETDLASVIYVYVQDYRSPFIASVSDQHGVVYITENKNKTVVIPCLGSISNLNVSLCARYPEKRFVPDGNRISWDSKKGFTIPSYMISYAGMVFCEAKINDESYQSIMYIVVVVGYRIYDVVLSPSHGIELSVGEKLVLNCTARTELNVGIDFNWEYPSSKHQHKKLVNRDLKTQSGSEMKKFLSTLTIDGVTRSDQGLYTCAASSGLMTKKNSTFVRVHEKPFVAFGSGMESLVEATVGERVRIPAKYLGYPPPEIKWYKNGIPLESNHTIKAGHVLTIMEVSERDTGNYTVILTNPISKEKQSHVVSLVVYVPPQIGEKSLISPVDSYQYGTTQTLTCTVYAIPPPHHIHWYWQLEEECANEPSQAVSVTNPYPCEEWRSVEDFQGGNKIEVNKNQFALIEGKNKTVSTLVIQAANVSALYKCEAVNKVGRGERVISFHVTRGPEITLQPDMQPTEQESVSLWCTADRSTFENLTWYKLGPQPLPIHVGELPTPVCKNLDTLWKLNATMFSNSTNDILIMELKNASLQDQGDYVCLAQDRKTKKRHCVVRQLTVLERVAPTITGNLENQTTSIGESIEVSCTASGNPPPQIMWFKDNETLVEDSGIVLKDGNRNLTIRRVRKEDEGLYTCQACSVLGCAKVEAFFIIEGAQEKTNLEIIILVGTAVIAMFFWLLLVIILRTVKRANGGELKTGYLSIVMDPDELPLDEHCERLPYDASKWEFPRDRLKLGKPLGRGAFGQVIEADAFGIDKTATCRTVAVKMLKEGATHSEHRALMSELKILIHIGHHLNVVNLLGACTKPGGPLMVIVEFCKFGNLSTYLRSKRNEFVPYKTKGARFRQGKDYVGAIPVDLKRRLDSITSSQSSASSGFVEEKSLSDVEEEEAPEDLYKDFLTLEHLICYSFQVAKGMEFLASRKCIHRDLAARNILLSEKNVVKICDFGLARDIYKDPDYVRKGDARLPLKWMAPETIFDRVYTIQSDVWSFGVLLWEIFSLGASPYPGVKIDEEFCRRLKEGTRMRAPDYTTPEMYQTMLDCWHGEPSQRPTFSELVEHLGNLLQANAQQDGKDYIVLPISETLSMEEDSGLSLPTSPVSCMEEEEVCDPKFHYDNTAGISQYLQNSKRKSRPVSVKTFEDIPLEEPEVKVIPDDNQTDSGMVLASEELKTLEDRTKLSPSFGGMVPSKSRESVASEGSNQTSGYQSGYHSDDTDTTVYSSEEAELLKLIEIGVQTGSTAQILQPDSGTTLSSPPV

| Compound | IC50 [1] [nM] | IC50 (Homo sapiens) [nM] | Inhibition (Mus musculus [2]) [%] | Inhibition (Mus musculus [3]) [%] | ED50 (Mus musculus [4]) [mg/kg] | ED90 (Mus musculus [4]) [mg/kg] | further results |
| --- | --- | --- | --- | --- | --- | --- | --- |
| CN1CCN([C@H]2CC[C@H](n3nc(-c4ccc(Oc5ccccc5)cc4)c4c(N)ncnc43)CC2)CC1 | – | – | 49 | 84 | 1.5 | 6 | Clp (Rattus norvegicus [5]): 20 mL/min/kg; Vd [6]: 9.6 L/kg; bioavailability [7]: 69%; Tmax [8]: 1.5 h; Cmax (Rattus norvegicus [9]): 0.62 uM l-1; IC50 [10]: 5320 nM; IC50 [11]: 40 nM; half-life [12]: 5.2 h |
| CN1CCN([C@H]2CC[C@H](n3cc(-c4ccc(Oc5ccccc5)cc4)c4c(N)ncnc43)CC2)CC1 | – | – | – | – | 2.5 | – | IC50 [13]: 42 nM; IC50 (Angiopoietin-1 receptor): 250 nM; IC50 [11]: 15 nM |
| CN1CCN([C@H]2CC[C@H](n3nc(-c4ccc(C(=O)c5ccccc5)cc4)c4c(N)ncnc43)CC2)CC1 | > 50000 | – | – | – | – | – | – |
| COc1cc(-c2nn([C@H]3CC[C@H](N4CCN(C)CC4)CC3)c3ncnc(N)c23)ccc1NC(=O)C(C)(C)Cc1ccccc1 | > 50000 | – | – | – | – | – | – |
| COc1cc(-c2nn([C@H]3CC[C@H](N4CCN(C)CC4)CC3)c3ncnc(N)c23)ccc1NCc1ccccc1 | – | – | – | – | – | – | IC50 [10]: > 50000 nM; IC50 [11]: 55 nM |
| COc1cc(-c2nn([C@H]3CC[C@H](N4CCN(C)CC4)CC3)c3ncnc(N)c23)ccc1NC(=O)CCc1ccccc1 | > 50000 | 38 | <10 | 63 | 5 | 30 | – |
| COc1cc(-c2nn([C@H]3CC[C@H](N4CCN(C)CC4)CC3)c3ncnc(N)c23)ccc1NS(=O)(=O)c1ccccc1 | > 50000 | – | – | – | – | – | – |
| COc1cc(Cc2nn([C@H]3CC[C@H](N4CCN(C)CC4)CC3)c3ncnc(N)c23)ccc1NC(=O)[C@@H]1C[C@H]1c1ccccc1 | > 50000 | – | – | – | – | – | – |
| COc1cc(-c2nn([C@H]3CC[C@H](N4CCN(C)CC4)CC3)c3ncnc(N)c23)ccc1NC(=O)OCc1ccccc1 | 34200 | 2 | 14 | 51 | 3 | 14 | – |
| COc1cc(-c2nn([C@H]3CC[C@H](N4CCN(C)CC4)CC3)c3ncnc(N)c23)ccc1NC(=O)c1cc2ccccc2o1 | > 50000 | 6 | <10 | 48 | 8.5 | 12.5 | – |

More lines, main results first:

| IC50 [1] [nM] | IC50 (Homo sapiens) [nM] | Compound | Inhibition (Mus musculus [2]) [%] | Inhibition (Mus musculus [3]) [%] | ED50 (Mus musculus [4]) [mg/kg] | ED90 (Mus musculus [4]) [mg/kg] | further results |
| --- | --- | --- | --- | --- | --- | --- | --- |
| 3810 | 135 | CN1CCN([C@H]2CC[C@H](n3nc(-c4ccc(Nc5ccccc5)cc4)c4c(N)ncnc43)CC2)CC1 | <10 | 95 | 2.5 | 10.7 | – |
| > 50000 | 50 | COc1cc(-c2nn([C@H]3CC[C@H](N4CCN(C)CC4)CC3)c3ncnc(N)c23)ccc1NC(=O)c1ccccc1 | <10 | 37 | 9 | 23 | – |
| 263 | – | COc1cc(-c2nn([C@H]3CC[C@H](N4CCN(C)CC4)CC3)c3ncnc(N)c23)ccc1NC(=O)Nc1ccccc1 | – | – | – | – | – |
| 34600 | 8 | COc1cc(-c2nn([C@H]3CC[C@H](N4CCN(C)CC4)CC3)c3ncnc(N)c23)ccc1NC(=O)CC(C)(C)c1ccccc1 | 22 | 98 | 2 | 12.5 | – |
| 435 | – | CN1CCN([C@H]2CC[C@H](n3nc(-c4ccc(NCc5cc6ccccc6[nH]5)cc4)c4c(N)ncnc43)CC2)CC1 | – | – | – | – | – |
